We go through four compounds from patent publication US9388124B2, “Ingenol-3-acylates I” (LEO LABORATORIES LIMITED, priority 2010, dated 2016).

SMILES strings stand for the structures. Like-named read-outs stand apart in the source and are kept apart here.

The EC50 is the concentration that produces a half-maximal response.

Holding throughout (assay type): cell-based
For assay [1], the system named is Primary human epidermal keratinocytes, HeKa. The assay can be described thus: HeKa cytokine release (IL-8) assay. As to the method: HeKa Cytokine Release (IL-8) Assay:
Primary human epidermal keratinocytes, HeKa, were seeded (10.000 cells/well) in 96-well plates the day before the assay. Test compounds were diluted in DMSO (dimethyl sulfoxide) and further diluted in assay medium and pipetted into wells of 96 well-plates containing HeKa cells. The plates were incubated for 6 h at 37° C. in humidified air with 5% CO2. Plates were centrifuged briefly to spin down cells at 4° C., the supernatant was removed and analysed by Meso Scale Discovery (MSD) 4-spot cytokine assay (Pro-inflammatory II Ultra Sensitive kit, MSD, MD, USA). The MSD assay employs a sandwich immunoassay format where capture antibodies are coated in a patterned array on the bottom of the wells of a 4-Spot-Multi-MSD plate. Standard samples were incubated in the MULTI-SPOT plates as well, and the cytokine (IL-8) binds to its corresponding capture antibody spot. The cytokine level was quantitated on a SECTOR™ Imager using a cytokine-specific Detection Antibody labelled with MSD SULFO-TAG™ reagent.
Test compound titration curves were fitted to a four-parameter sigmoidal curve after normalizing the effect of the test compound to the effect of the positive control (1.5×10^−7 M PEP0005). Rel EC50 denotes the concentration of test compound producing an effect that is midway between the fitted top and bottom.

Assay [2] relates to PMN's (polymorphonuclear leukocytes). The assay can be described thus: Neutrophil oxidative burst assay. Particulars: Leukocyte, 40 min, read-out: Neutrophil oxidative burst Rel EC50 range. As to the method: Neutrophil Oxidative Burst Assay:
PMN's (polymorphonuclear leukocytes) were isolated and purified from fresh buffy coats by sequential sedimentation, density centrifugation and lysis of contaminating erythrocytes. Buffy coats were incubated with 2% methocel for 30-45 min to differentially sediment red blood cells. The leukocyte-rich supernatant was transferred to lymphoprep tubes to remove mononuclear cells by density centrifugation (400×g, 30 min). The pellet was resuspended and any remaining erythrocytes lysed using 0.2% NaCl for 30 sec before restoring isotonicity by the addition of 1.2% NaCl. This step was repeated until the cell pellet appears relatively free of red blood cells. Cells were resuspended in DPBS (Dulbecco's Phosphate Buffered Saline) (w.o. Ca^2+, Mg^2+) and the concentration adjusted to 1.4×10^6 cells/ml in HBSS (Hanks Balanced Salt solution) (w Ca^2+, Mg^2+) containing 0.1% BSA (Bovine Serum Albumin) and 5 mM glucose just prior to assay initiation. Titrated reference and test compounds were pre-mixed with HE (Hydroethidine) (10 μM final assay concentration) before addition to 96-well plates containing 2.5×10^5 cells. Following 40 min incubation at RT, changes in the respiratory burst was estimated by measuring fluorescence at 579 nm (excitation: 485 nm) using an Envision plate reader.
Test compound titration curves were fitted to a four-parameter sigmoidal curve after normalizing the effect of the test compound to the effect of the positive control (5×10^−7 M PEP0005). Rel EC50 denotes the concentration of test compound producing an effect that is midway between the fitted top and bottom. Abs EC50 is the concentration of test compound that provokes a response corresponding to 50% of the maximal effect associated with the positive control (5×10^−7 M PEP0005).

The test system of assay [3] is HeLa cells. Description: Necrosis assay. The settings on record: Homo sapiens, 0.5 h, read-out: HeLa Necrosis EC50 range. Here is the method: HeLa cells (ATCC CCL-002) were grown in minimal essential medium (Invitrogen catalog no. 42360) containing 10% fetal bovine serum, 100 IU/ml penicillin and 100 μg/ml streptomycin. 4,000-6,000 cells were seeded into 96-well black ViewPlates-plates, clear bottom, (Perkin Elmer) in 100 μl medium and incubated overnight. Compounds were dissolved and pre-diluted in DMSO in 96-well polypropylene plates (Greiner) in a concentration range of 15 μM to 600 μM. At the time of the experiment cell plates were placed on heating blocks at 37° C., medium was removed and 40 μl fresh, pre-warmed medium was added per well. Cells were incubated for 15 min before addition of compounds. In parallel, 3 μl of compounds were diluted with 197 μl growth medium on a Tecan freedom-EVO pipetting station using 250 μl/s pipetting speed, in order to ensure effective mixing of the highly concentrated compound solutions with the aqueous phase. These pre-dilution plates were then equilibrated on heating blocks at 37° C. for 10 min. 80 μl pre-diluted compound were transferred manually to the corresponding wells containing HeLa cells yielding compound concentrations of 10 μM to 400 μM. Control conditions were 1% DMSO in growth medium (100% viability) and 400 μM ingenol mebutate in growth medium (0% viability). Plates were incubated on the heating blocks at 37° C. for 30 min. At the end of the incubation 10 μl PrestoBlue reagent (Invitrogen) were added to each well, plates were sealed with black seal, followed by incubation at 37° C. for 10 min with gentle shaking (150 rpm). Subsequently, plates were placed at room temperature for 20-30 min. Plates were read immediately after on an Envision Fluorescence reader (Perkin Elmer) with excitation at 535 nm and emission at 630 nm. Test compound titration curves were fitted to a four-parameter sigmoidal curve after normalizing the effect of the test compound to the effect of the positive control (4 10^−4 M PEP0005/ingenol mebutate). AbsEC50 denotes the concentration of test compound producing 50% effect.

Setting [4] is: HEKa, 6 h, read-out: HeKa cytokine release (IL-8) Rel EC50 range.

Turning to `C/C=C(/C(=O)O[C@H]1C(C)=C[C@]23C(=O)[C@@H](C=C(CO)[C@@H](O)[C@]12O)[C@H]1[C@@H](C[C@H]3C)C1(C)C)c1ccccc1` [Compound 118, Ingenol 3-((E)-2-phenylbut-2-enoate)], the concentration giving a half-maximal response (EC50) in assay [1] (setting [4]) was less than 20 nM; in assay [2] it was less than 20 nM; in assay [3] (HeLa), less than 150000 nM.
`CC1=C[C@]23C(=O)[C@@H](C=C(CO)[C@@H](O)[C@]2(O)[C@H]1OC(=O)C(c1ccccc1)c1ccccc1)[C@H]1[C@@H](C[C@H]3C)C1(C)C` [Compound 119, Ingenol 3-(2,2-diphenylacetate)]: the concentration for a half-maximal effect (EC50) in assay [1] (setting [4]) was less than 20 nM; in assay [2], less than 20 nM; in assay [3] (HeLa), less than 150000 nM.
Turning to `CC1=C[C@]23C(=O)[C@@H](C=C(CO)[C@@H](O)[C@]2(O)[C@H]1OC(=O)C(=O)N(C)c1ccccc1)[C@H]1[C@@H](C[C@H]3C)C1(C)C` [Compound 121, Ingenol 3-(2-(methyl(phenyl)amino)-2-oxo-acetate)], the EC50 in assay [1] (setting [4]) is more than 100 nM; in assay [2], 20 to 100 nM; in assay [3] (HeLa), less than 350000 nM.
Take `C/C=C(/C)C(=O)O[C@H]1C(C)=C[C@]23C(=O)[C@@H](C=C(CO)[C@@H](O)[C@]12O)[C@H]1[C@@H](C[C@H]3C)C1(C)C` [PEP005, Ingenol-3-angelate, reference compound]: the EC50 is less than 20 nM in assay [1] (HeKa cells, 6 h at 37° C., MSD IL-8, normalized to 1.5×10^−7 M PEP0005, read-out: HeKa cytokine release (IL-8) Rel EC50 range); less than 20 nM in assay [2] (PMNs, 40 min at RT, hydroethidine fluorescence, normalized to 5×10^−7 M PEP0005); 150000 to 350000 nM in assay [3] (HeLa cells, 30 min at 37° C., PrestoBlue, AbsEC50, normalized to 4 10^−4 M PEP0005/ingenol mebutate).
